Results on one molecule are retold here after patent US20040259096A1, “Receptor capture assay” (priority 2001, published 2004).

Assay [1] relates to Ah receptor. The experiment in a line: Detecting activated Ah receptor in nuclear extracts of treated Hepa 1c1c7 cells. In kind it is cell-based, murine. Particulars: Hepa 1c1c7 cells treated with 10 μM BNF for 1 hour. The method, then:
Hepa 1c1c7 cells were grown until nearly confluent in Dulbecco's modified Eagle's medium and 8% fetal bovine serum. The cells were treated with 10 μM beta-naphthoflavone (BNF) in DMSO for 1 hour. The cells were then harvested after two washes with ice-cold PBS by centrifugation at 1000×g. The cells were then suspended in 5 packed cell pellet volumes of 10 mM Hepes, pH 7.5 and allowed to stand for 10 min.
The suspended cells were again collected by centrifugation and resuspended in two packed cell pellet volumes of 25 mM Hepes, pH 7.5, 3 mM MgCl2, 1 mM DTT and then lysed with 10 strokes of a Kontes all glass Dounce homogenizer (B type pestle). The resulting homogenate was checked microscopically to confirm cell lysis and then centrifuged for 10 min at 1000×g to pellet the nuclei.
The nuclear extract was prepared as follows. The nuclei were resuspended and incubated for 30 min in 25 mM Hepes, pH 7.5, 3 mM MgCl2, 1 mM DTT containing 0.4 M KCl. The suspension was occasionally vortexed during the 30 min incubation and centrifuged in a microfuge at high speed. Glycerol was added to the supernatant to a 10% concentration. The nuclear extract was diluted to lower the salt concentration prior to testing. The diluent was Hepa 1c1c7 cell extract that was previously boiled in order to inactivate protein factors and cooled to room temperature. […]

The subject of assay [2] is Ah receptor. The assay can be described thus: Receptor capture assay employing ARNT-GST fusion protein, anti-GST plate, PCR and gel densitometry. In kind it is biochemical, murine. The following applies: B-naphthoflavone 10 μM; duplicate samples; 30 cycles PCR; DMSO control 363. The method, then: The receptor was activated in the presence of ARNT/GST binding partner and test sample. Sufficient ARNT/GST was added to displace the endogenous ARNT present in the Ah receptor preparation. In a tube, 98 μl Hepa1c1c7 (0.8 mg) extract was incubated with 1 μl GST-ARNT (50 ng) and 1 μl sample (e.g. BNF or vehicle alone) at 30° C. for 1 hour. Non-specific binding of the nucleic acid-tracer was reduced by preincubating the reaction mix with NaCl to 60 mM and 2 μg salmon sperm DNA for 15 min. at room temperature. Nucleic acid-tracer was added to 50 fmol and the reaction was incubated 20 min at room temperature. The complex was captured on a commercially available 96-well anti-GST plate (Perkin Elmer Life Sciences, Boston, Mass.). The anti-GST coated microtiter plate was washed once with Wallac Wash Buffer prior to addition of 50 μl receptor-DNA reaction. […]
Samples were analyzed by agarose gel electrophoresis with visualization of ethidium-bromide stained DNA bands under UV radiation Typically, 20 μl of each sample was analyzed in the 4% gels, yielding bright fluorescent bands from the positive controls. […] Negatives were scanned using an HPscanjet 2200c and DNA bands were quantified using ScionImage (Scion Corporation) software.
Duplicate samples were analyzed with the protocol described above with B-naphthoflavone (10 μM) or vehicle (DMSO) following 30 cycles PCR. […]

SMILES strings stand for the structures.

As for `O=c1cc(-c2ccccc2)oc2ccc3ccccc3c12` [BNF, beta-naphthoflavone], the “PCR-amplified DNA over nuclear extracts from DMSO-treated cells” value in assay [1] is “significant and reproducible increase in PCR-amplified DNA”. In assay [2], the “average value of quantified DNA bands” value came out at 3013.
